Here are results for 17 molecules from patent publication US10829458B2 (Araxes Pharma LLC, priority 2015, dated 2020).

For series [1], the target named is T1, KRAS G12C 1-169, his-tagged protein, GDP-loaded (Homo sapiens, UniProt P01116, G12C).
T1 construct: KRAS G12C 1-169, his-tagged protein, GDP-loaded
Kind of series: Biochemical assay: covalent modification of KRAS G12C measured by mass spectrometry (RapidFire/TOF or Q-Exactive). The following applies: covalent binding to KRAS G12C. In outline: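 Covalent adduct formation read by intact-mass spectrometry (TOF or Q Exactive Plus, charge envelopes deconvoluted into modified and unmodified species) after formic acid quench. Reactions contained 2 μM GDP-bound KRAS G12C 1-169 (his-tag) in Hepes/NaCl/MgCl2 buffer plus 10, 30 or 100 μM final compound, held 30 min, 2 h or 24 h at room temperature.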

The nature of another series: Whole blood stability. It counts as in vitro ADME. The following applies: 37° C., time points 0, 1, 2, 4 hr, LC/MS/MS; for half-life at 5 µM: mouse, whole blood, read-out: Whole Blood Stability (T1/2) hr. Mouse (converted). The method, then: Test compounds were prepared as a 500 μM stock solution in DMSO (Adding 10 μl of 10 mM DMSO stock solution to 190 μl of 100% DMSO). Whole blood was thawed on ice. A whole blood plate was prepared by adding 460 μl of the whole blood (different species as needed) to a 96-well in ml deep well plate. The whole blood plate was preincubated at 37° C. for 10 min. 4 μl of compound solution and 396 μl of whole blood was added to the plate and mixed thoroughly. Each sample was aliquoted (30 μl) to the incubation plate (cluster tubes) and quenched at time zero with ice-cold 100% ACN, and the incubation plates were added to the 37° C. incubator (200 μl).
The time zero sample was maintained at 4° C. until centrifuged. All other samples were quench at different time points (1, 2, 4 hr), vortexed for 30 seconds and centrifuged at 3500 rpm for 15 min at 4° C. 30 μl of supernatant was added to 170 μl 0.1% FA aqueous solution and the sample was analyzes by LC/MS/MS.

With `C=CC(=O)N1[C@H](C)CN(c2ncnc3c(F)c(-c4c(O)cccc4F)c(Cl)cc23)C[C@H]1C` [III-22, 1-((2R,6R)-4-(6-chloro-8-fluoro-7-(2-fluoro-6-hydroxy-phenyl)quinazolin-4-yl)-2,6-dimethyl-piperazin-1-yl)prop-2-en-1-one], the Binding % result in series [1] (compounds of structure (III)) was “+ (+ indicates binding activity up to 50%)”. Besides, the half-life at 5 µM in “Whole blood stability” is over 12 h.
Taken in the same sequence, the figures for `C=CC(=O)N1CCN(c2ncnc3c(F)c(-c4c(O)cccc4F)c(Cl)cc23)[C@@H](C)C1` (atropisomer, axis not shown) [III-23, 1-((S)-4-((R)-6-chloro-8-fluoro-7-(2-fluoro-6-hydroxy-phenyl)quinazolin-4-yl)-3-methyl-piperazin-1-yl)prop-2-en-1-one] were “+ (+ indicates binding activity up to 50%)” and over 12 h.
Turning to `C=CC(=O)N1C[C@H](C)N(c2ncnc3c(F)c(-c4c(O)cccc4F)c(Cl)cc23)[C@@H](C)C1` [III-37, 1-((3S,5S)-4-(6-chloro-8-fluoro-7-(2-fluoro-6-hydroxy-phenyl)quinazolin-4-yl)-3,5-dimethyl-piperazin-1-yl)prop-2-en-1-one], in series [1] (compounds of structure (III)), the Binding % result is recorded as “++ (++ indicates activity from 50% to 90%)”. The half-life at 5 µM in “Whole blood stability” is 9.9 h.
Consider `C=CC(=O)N1CCN(c2ncnc3c(F)c(-c4c(O)cccc4F)c(Cl)cc23)C(C)(C)C1` [III-17, 1-(4-(6-chloro-8-fluoro-7-(2-fluoro-6-hydroxy-phenyl)quinazolin-4-yl)-3,3-dimethyl-piperazin-1-yl)prop-2-en-1-one], for which the Binding % result in series [1] (compounds of structure (III)) was “++ (++ indicates activity from 50% to 90%)”. For the same molecule, the half-life at 5 µM in the series “Whole blood stability” is 12.5 h.
The corresponding values for `C=CC(=O)N1CCN(c2ncnc3c(F)c(-c4c(O)cccc4F)c(Cl)cc23)C[C@H]1C` [III-21, 1-((2R)-4-(6-chloro-8-fluoro-7-(2-fluoro-6-hydroxy-phenyl)quinazolin-4-yl)-2-methyl-piperazin-1-yl)prop-2-en-1-one] are “++ (++ indicates activity from 50% to 90%)” and over 12 h.
As for `C=CC(=O)N1[C@@H](C)CN(c2ncnc3c(F)c(-c4c(O)cccc4F)c(Cl)cc23)C[C@@H]1C` [III-18, 1-((2S,6S)-4-(6-chloro-8-fluoro-7-(2-fluoro-6-hydroxy-phenyl)quinazolin-4-yl)-2,6-dimethyl-piperazin-1-yl)prop-2-en-1-one], the Binding % entry in series [1] (compounds of structure (III)) is “+ (+ indicates binding activity up to 50%)”. Further, the half-life at 5 µM in the series “Whole blood stability” was 8.8 h.
Taken in the same sequence, the figures for `C=CC(=O)N1[C@H](C)CN(c2ncnc3c(F)c(-c4c(O)cccc4F)c(Cl)cc23)C[C@@H]1C` (atropisomer, axis not shown) [III-29, 1-((2S,6R)-4-((R)-6-chloro-8-fluoro-7-(2-fluoro-6-hydroxy-phenyl)quinazolin-4-yl)-2,6-dimethyl-piperazin-1-yl)prop-2-en-1-one] were “+ (+ indicates binding activity up to 50%)” and 10.9 h.
With `C=CC(=O)N1CCN(c2ncnc3c(F)c(-c4c(O)cccc4F)c(Cl)cc23)[C@@H](C)C1` (atropisomer, axis not shown) [III-24, 1-((S)-4-((S)-6-chloro-8-fluoro-7-(2-fluoro-6-hydroxy-phenyl)quinazolin-4-yl)-3-methyl-piperazin-1-yl)prop-2-en-1-one], the Binding % result in series [1] (compounds of structure (III)) is on record as “+++ (+++ indicates binding activity greater than 90%)”. Moreover, the “Whole Blood Stability (T1/2) hr. Mouse” value in the series “Whole blood stability” was 10.4 h.
The corresponding values for `C=CC(=O)N1CCN(c2ncnc3c(F)c(-c4c(O)cccc4F)c(Cl)cc23)[C@@H](C)C1` [III-14, 1-((3S)-4-(6-chloro-8-fluoro-7-(2-fluoro-6-hydroxy-phenyl)quinazolin-4-yl)-3-methyl-piperazin-1-yl)prop-2-en-1-one] are “++ (++ indicates activity from 50% to 90%)” and 6.2 h.
Turning to `C=CC(=O)N1CCN(c2ncnc3c(F)c(-c4c(O)cccc4F)c(Cl)cc23)C[C@@H]1C` [III-20, 1-((2S)-4-(6-chloro-8-fluoro-7-(2-fluoro-6-hydroxy-phenyl)quinazolin-4-yl)-2-methyl-piperazin-1-yl)prop-2-en-1-one], the Binding % result in series [1] (compounds of structure (III)) is recorded as “++ (++ indicates activity from 50% to 90%)”. Moreover, the half-life at 5 µM in “Whole blood stability” is 10.6 h.
For `C=CC(=O)N1CCN(c2ncnc3c(F)c(-c4c(O)cccc4F)c(Cl)cc23)CC1` (atropisomer, axis not shown) [A, reference compound], the half-life at 5 µM in “Whole blood stability” was 3.99 h.
As for `C=CC(=O)N1[C@H](C)CN(c2ncnc3c(F)c(-c4c(O)cccc4F)c(Cl)cc23)C[C@@H]1C` [III-15, 1-((2S,6R)-4-(6-chloro-8-fluoro-7-(2-fluoro-6-hydroxy-phenyl)quinazolin-4-yl)-2,6-dimethyl-piperazin-1-yl)prop-2-en-1-one], in series [1] (compounds of structure (III)), the Binding % result is recorded as “++ (++ indicates activity from 50% to 90%)”. Further, the “Whole Blood Stability (T1/2) hr. Mouse” value in the series “Whole blood stability” came out at 11.1 h.
With `C=CC(=O)N1CCN(c2nc(P(C)(C)=O)nc3c(F)c(-c4c(O)cccc4F)c(Cl)cc23)CC1` [Example I-205, 1-(4-(6-chloro-2-(dimethyl-phosphoryl)-8-fluoro-7-(2-fluoro-6-hydroxyphenyl)quinazolin-4-yl)piperazin-1-yl) prop-2-en-1-one], in series [1] (compounds of structure (I)), the Binding % result was “++ (++ indicates binding activity from 50 to 90%)”.
`C=CC(=O)N1CCN(c2ncnc3c(F)c(-c4c(F)cccc4OCc4cncn4C)c(Cl)cc23)CC1` [II-6, 1-(4-(6-chloro-8-fluoro-7-(2-fluoro-6-((1-methyl-1H-imidazol-5-yl)methoxy)phenyl)quinazolin-4-yl)piperazin-1-yl)prop-2-en-1-one]: in series [1] (compounds of structure (II)), the Binding % entry was “++ (++ indicates binding activity greater than 50% and less than 75%)”.
Take `C=CC(=O)N1C(C)CN(c2ncnc3c(F)c(-c4c(O)cccc4F)c(Cl)cc23)CC1C` (stereo not shown) [III-9, 1-(4-(6-chloro-8-fluoro-7-(2-fluoro-6-hydroxy-phenyl)quinazolin-4-yl)-2,6-dimethyl-piperazin-1-yl)prop-2-en-1-one]: the Binding % result in series [1] (compounds of structure (III)) is given as “++ (++ indicates activity from 50% to 90%)”.
As to `C=CC(=O)N1CCN(c2nc(NCCO)nc3c(F)c(-c4c(C)ccc5[nH]ncc45)c(Cl)cc23)CC1` [Example I-5, 1-(4-(6-chloro-8-fluoro-2-(2-hydroxyethyl-amino)-7-(5-methyl-1H-indazol-4-yl)quinazolin-4-yl)piperazin-1-yl)prop-2-en-1-one], the Binding % entry in series [1] (compounds of structure (I)) is “+ (+ indicates binding activity up to 50%)”.
With `C=CC(=O)N1CCN(c2ncnc3c(F)c(-c4c(O)cccc4F)c(Cl)cc23)[C@@H](CC)C1` [III-32, 1-((3S)-4-(6-chloro-8-fluoro-7-(2-fluoro-6-hydroxy-phenyl)quinazolin-4-yl)-3-ethyl-piperazin-1-yl)prop-2-en-1-one], the Binding % result in series [1] (compounds of structure (III)) was “++ (++ indicates activity from 50% to 90%)”.
